Measurements: patent EP2326714B1, “METHOD FOR THE PRODUCTION OF A FEED ADDITIVE FOR THE OXYGEN-INDEPENDENT, ENZYMATIC DECOMPOSITION OF MYCOTOXINS, FEED ADDITIVE, AND USE THEREOF” (Erber Aktiengesellschaft, priority 2008, dated 2010)

Assays:
[1] = test system: CCCC[C@@H](C)[C@@H](OC(=O)C[C@@H](CC(=O)O)C(=O)O)[C@H](C[C@@H](C)C[C@H](O)CCCC[C@@H](O)C[C@H](O)[C@H](C)N)OC(=O)C[C@@H](CC(=O)O)C(=O)O; assay: Enzyme kinetics of fumonisin carboxylesterase (Michaelis-Menten, HPLC-MS/MS); type: biochemical, Sphingopyxis sp.
Experimental: (§1) Das fumD Gen (Sequenz ID-Nr. 8), welches eine Fumonisin-Carboxylesterase codiert, wurde kloniert und in Pichia pastoris unter Verwendung von Standardverfahren exprimiert. Das his-getaggte Enzym wurde rückgewonnen und aus der überstehenden Lösung der Kultur durch Affinitätschromatographie gereinigt. Die Enzymkonzentration wurde bestimmt und die enzymkinetischen Parameter wurden mit sieben unterschiedlichen Substratkonzentrationen im Bereich zwischen 50 µg bis 25 mg FB1 pro Liter und einer Enzymkonzentration von 0,33 ng/ml bestimmt. Die Reaktionen wurden in 20 mM Tris-Cl (pH 8,0) Puffer mit 0,1 mg/ml Rinderserumalbumin gepuffert und bei 30 °C inkubiert. Proben wurden nach 0, 30, 60 120 und 240 Minuten Inkubation genommen und durch HPLC-MS/MS analysiert. Fumonisin B1 (FB1) und hydrolysiertes Fumonisin B1 wurden quantifiziert basierend auf einer Kalibrierung mit den gereinigten Referenzsubstanzen und einem vollständig ^13C markierten, internen FB1 Standard.
(§2) Fig. 2 zeigt die Michaelis-Menten-Kurve für die Transformation von Fumonisin B1 (FB1) durch Fumonisin-Carboxylesterase FumD, welche bei einer Enzymkonzentration von 0,33 ng/ml in Tris-Cl-Puffer (pH 8,0) bestimmt wurde, wobei anfängliche Enzymgeschwindigkeiten gegen die Substratkonzentration aufgetragen wurden. Die Michaelis-Menten-Kurve zeigt einen Abfall bei höheren Substratkonzentrationen, da die Enzymgeschwindigkeit basierend auf dem Produkt, d.h. hydrolysierter FB1-Bildung berechnet wurde. Da hydrolysiertes FB1 aus FB1 in einer zweistufigen Reaktion über partiell hydrolysiertes FB1 mit lediglich einer Tricarballylsäure-Seitenkette, die zurückbehalten wurde, und einer Seitenkette ausgebildet wird, die abgespalten wurde, war die Endproduktbildung bei hohen Substratkonzentrationen verzögert. Die Michaelis-Menten-Konstante KM wurde als 0,90 µmol/l berechnet, was 650 ppb äquivalent ist, und die Umwandlungszahl war 900 pro Sekunde.

[2] = biological target: T1, Fumonisin-Carboxylesterase FumD, Sequenz ID-Nr. 9 (fumD Gen Sequenz ID-Nr. 8), Sphingopyxis sp. Stamm DSM 16254, his-getaggt, in Pichia pastoris exprimiert (Sphingopyxis macrogoltabida, UniProt D2D3B6); assay: as above; type: biochemical; details: substrate FB1; enzyme 0,33 ng/ml; Tris-Cl pH 8,0; 30 °C
T1 construct: His tag; made in house; host or cells: Pichia pastoris (secreted, purified from the culture supernatant)
Experimental: as §1, §2

Absetzferkel = assay: Feeding trial with piglets (fumonisin B1 contaminated feed, positive control); type: in vivo, Ferkel (ÖHYB); details: 4 - 5,5 ppm Fumonisin B1 in feed, no enzyme
Excerpt: Der Versuch wurde in einem Versuchsstall mit 12 Buchten für jeweils 10 Tiere durchgeführt. Der Stall war ausgestattet mit Spaltenboden, Schalentränkern und einem computergesteuerten Fütterungssystem. Die Automaten waren entlang der Buchtenwände angeordnet. Das Stallklima wurde täglich automatisch aufgezeichnet und die Temperatur nach den Standardempfehlungen zur Ferkelaufzucht eingestellt.
120 gemischt-geschlechtliche Absetzferkel (Alter: ca. 4 Wochen, durchschnittliches Einstellgewicht 8,21 kg) wurden für diesen Versuch eingesetzt. Jedes Ferkel wurde mit einer Ohrmarke versehen und einzeln gewogen. Die 120 Ferkel wurden auf 12 Buchten zufällig verteilt. Alle Ferkel entstammten dem österreichischen Zuchtprogramm ÖHYB (= (Edelschwein x Landrasse) x Pietrain).
Direkt nach dem Absetzen wurden die Ferkel für 2 Tage mit einem Starterfutter gefüttert, nach dieser Eingewöhnungsphase erfolgte die Umstellung auf das Versuchsfutter. Die Fütterung erfolgte 2-phasig: Absetzphase Tag 1 - 14, Aufzuchtphase Tag 15 - 42. Das Versuchsfutter wurde buchtenindividuell über die Spotmix-Fütterungsanlage gemischt und je nach Anzahl der Ferkel, Gewichtsentwicklung und Futterverzehr zweimal täglich trocken zugeteilt. Wasser stand zur Aufnahme ad libitum zur Verfügung. Die 12 Buchten wurden in vier verschiedene Applikationsgruppen zu je drei Wiederholungen geteilt und erhielten die folgenden Einmischungen ins oben beschriebene Futter: […]

T1 sequence (D2D3B6 whole entry): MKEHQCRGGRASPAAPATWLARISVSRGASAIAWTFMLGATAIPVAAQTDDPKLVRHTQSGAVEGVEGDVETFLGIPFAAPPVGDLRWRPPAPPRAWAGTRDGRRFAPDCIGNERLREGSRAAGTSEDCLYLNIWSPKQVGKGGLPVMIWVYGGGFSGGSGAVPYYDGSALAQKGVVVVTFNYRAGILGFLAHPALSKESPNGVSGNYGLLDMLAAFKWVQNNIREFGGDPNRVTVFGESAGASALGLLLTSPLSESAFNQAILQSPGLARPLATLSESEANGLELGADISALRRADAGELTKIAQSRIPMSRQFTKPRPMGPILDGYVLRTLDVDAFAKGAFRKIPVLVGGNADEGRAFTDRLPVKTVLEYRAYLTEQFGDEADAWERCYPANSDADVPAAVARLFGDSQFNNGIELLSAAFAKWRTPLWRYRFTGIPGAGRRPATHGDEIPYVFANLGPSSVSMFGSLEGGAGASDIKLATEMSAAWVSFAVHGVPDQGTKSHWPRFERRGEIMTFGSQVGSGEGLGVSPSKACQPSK

Fumonisin-Carboxylesterase FumD, Sequenz ID-Nr. 9 (fumD Gen Sequenz ID-Nr. 8), Sphingopyxis sp. Stamm DSM 16254, his-getaggt, in Pichia pastoris exprimiert (Sphingopyxis macrogoltabida)
Km ([1]; other: same KM expressed in ppb, pH 8.0, 30.0 °C): 650 ppb
Km ([1]; other: substrate FB1, 50 µg to 25 mg per litre, enzyme 0,33 ng/ml, 20 mM Tris-Cl pH 8,0, 0,1 mg/ml BSA, 30 °C, rate based on formation of hydrolysed FB1): 0,90 µmol/l

CCCC[C@@H](C)[C@@H](OC(=O)C[C@@H](CC(=O)O)C(=O)O)[C@H](C[C@@H](C)C[C@H](O)CCCC[C@@H](O)C[C@H](O)[C@H](C)N)OC(=O)C[C@@H](CC(=O)O)C(=O)O [Fumonisin B1]
Umwandlungszahl [2]: 900 pro Sekunde
Ausfälle (Absetzferkel; 30 piglets, 42 days): 1
Endgewicht (Durchschnitt, kg) (Absetzferkel; 30 piglets, 42 days, negative control 26,82): 24,77 kg
respiratorische Probleme (Absetzferkel; all other groups appeared healthy): bei fast der Hälfte der Tiere respiratorische Probleme beobachtet
